System: HFF-1 cells
Assay: Cytoprotective/viability restorative effect against tbOH damage (MTT)
Format: cell-based, human
Conditions: 100 μM, positive control in serum free medium
Procedure: Cytoprotective viability restorative effects of 10×CM generated by process 2 against oxidative damage in dermal fibroblast cells upon treatment with 300 μM of tert-butyl hydroperoxide (tbOH) for 2 h and post treatment of damaged fibroblast with 10×CM for 48 h is evaluated by MTT assay. Treatment of HFF-1 cells with 300 μM of tbOH leads to 35% decrease in cellular viability in SFM treated as compared to untreated cells. The cytoprotection obtained with 10×CM is 11%, 18% and 12% higher at the doses of 5%, 10% and 50% respectively as compared to respective 10× control medium treated cells against tbOH damage (FIG. 10). In this assay, serum free medium with ascorbic acid (SFM+AA) is used as a positive control. Treatment of HFF-1 cells with 100 μM ascorbic acid (AA) also leads to 12% cytoprotection against tbOH damage. […] 10×CM has shown a trend in the ability to restore the viability of oxidative stressed fibroblast cells at the concentrations 5%, 10% and 50%. Maximum activity is observed at 10% 10×CM.

Question: Which “cytoprotection against tbOH damage” value does the source give for `O=C1O[C@H]([C@@H](O)CO)C(O)=C1O` [ascorbic acid] here?
Answer: Its value is 12%.
